Entries after “also recorded” stand apart in the source; their conditions may differ.
Experiments:
S. aureus [1] = assay: Cellulose disk on nutrient agar survival test (Example 6); type: cell-based; conditions: 48 h aerobic
From the text: (§1) The growth of S. aureus and P. aeruginosa in the presence of glycerol, chitosan-dextran polymer, or a combination of glycerol and chitosan-dextran polymer, was investigated according to the following methodology: • (A) Cellulose disks (approximately 1 cm in diameter) pre-soaked in S. aureus or P. aeruginosa cultures were placed on the surface of sterile nutrient agar plates. A test substance was placed on top of the soaked disks to allow contact with both the nutrient agar and a test substance. An untreated control agar plate contained only the soaked cellulose disk, with no test substance applied. The test substances were as described in Example 5, namely: (1) 20% v/v glycerol in water; (2) CS-DA-GLY; and (3) CS-DA. All test and control cellulose disk plates were incubated for 48±1 hours at conditions appropriate for each microorganism (e.g. aerobic conditions for S. aureus and P. aeruginosa, and anaerobic conditions for C. acnes). Following incubation, the cellulose disks were each aseptically removed from the agar surface and the microorganism contents of the cellulose disks were individually extracted using sterile phosphate-buffered saline solution. Each of the resulting microorganism suspensions were serially diluted 1:10 in sterile phosphate-buffered saline solution and 1.000 mL of the appropriate dilutions were plated in singlet to sterile growth media appropriate for the target test microorganism. Following incubation for 72 hours 40 minutes at conditions appropriate for each microorganism, the surviving test microorganisms were recorded for each test and control plate. • (B) The same methodology as (A) was performed, but the cellulose disk plates additionally included the supernatant of a C. acnes culture that was grown on a substrate comprising 20% glycerol. […]

C. propinquum = assay: Planktonic growth of nasal clinical isolates (OD 595 nm, 24 h); type: cell-based, Corynebacterium propinquum
Method: (§2) The effect of glycerol on bacterial growth was determined by analysis of nasal bacterial isolates from subjects participating in the trial described in Example 3. The bacterial isolates were cultured for 24 hours in Nutrient Broth (NB) and Brain-Heart Infusion (BHI) which further contained glycerol in an amount of either 20% v/v, or 40% v/v, or 0% glycerol (control).
(§3) A total of 22 nasal clinical isolates including C. accolens (n=4), C. propinquum(n=3), C. pseudodiptheriticum (n=3), S. epidermidis (n=4), S. aureus (n=4) and P. aeruginosa (n=4) were used in this experiment. Prior to starting experiments, isolates were grown in tryptic soya agar (TSA) and incubated at 37° C. under aerobic conditions for 24 hours, except for C. accolens which was incubated for 48 hours.
Glycerol at 20% was prepared by dilution in nutrient broth (NB) media. Glycerol treatments at 20% concentrations were prepared in a 96-well microtitration plate containing 50 μL NB. A single colony of bacterial isolates such as C. accolens, C. propinquum, C. pseudodiptheriticum, S. epidermidis, S. aureus and P. aeruginosa from overnight cultures was suspended with 0.9% saline (aqueous NaCl) to McFarland standard of 0.5 and diluted 1:100 in NB growth media. […] After incubation, the planktonic bacterial growth was determined by measuring the optical density (OD) at 595 nm using microplate absorbance reader (iMark™, BIO-RAD). […]

C. accolens = assay: as above; type: cell-based; conditions: NB and BHI
Method: as §2, §3
(§4) Glycerol at 20% was prepared by dilution in nutrient broth (NB) media. Glycerol treatments at 20% concentrations were prepared in a 96-well microtitration plate containing 50 μL NB. A single colony of bacterial isolates such as C. accolens, C. propinquum, C. pseudodiptheriticum, S. epidermidis, S. aureus and P. aeruginosa from overnight cultures was suspended with 0.9% saline (aqueous NaCl) to McFarland standard of 0.5 and diluted 1:100 in NB growth media. Next, 50 μL of the diluted bacterial suspension was then added to the treatments in each well and incubated aerobically for 24 hours at 37° C. A negative control (media without bacteria and treatment) and untreated growth control (media with bacteria but no treatment) were used in this assay. After incubation, the planktonic bacterial growth was determined by measuring the optical density (OD) at 595 nm using microplate absorbance reader (iMark™, BIO-RAD). For each bacterial strain, six replicate experiments were performed to assess bacterial growth.

P. aeruginosa [2] = assay: as above; type: cell-based
Method: as §2, §3, §4

S. aureus [3] = assay: as above; type: cell-based
Method: as §2, §3, §4

S. epidermidis = assay: as above; type: cell-based, Staphylococcus epidermidis
Method: as §2, §3, §4

[4] = system: commensal and pathogenic bacterial isolates; assay: Planktonic growth of nasal clinical isolates (OD 595 nm, 24 h), all isolates; type: cell-based
Method: as §2, §3, §4

C. pseudodiphtheriticum = assay: Planktonic growth of nasal clinical isolates (OD 595 nm, 24 h); type: cell-based, Corynebacterium pseudodiphtheriticum
Method: as §2, §3, §4

C. acnes = assay: Cellulose disk on nutrient agar survival test (Example 5); type: cell-based; conditions: 48 hours incubation, anaerobic; glycerol as 20% in water
From the text: The growth of C. acnes in the presence of glycerol, chitosan-dextran polymer (CS-DA), and a combination of glycerol and chitosan-dextran polymer (CS-DA-GLY) was investigated according to the following methodology: • Cellulose disks (approximately 1 cm in diameter) pre-soaked in C. acnes culture were placed on the surface of sterile nutrient agar plates. A test substance was placed on top of the soaked disks to allow contact with both the nutrient agar and a test substance. An untreated control agar plate contained only the soaked cellulose disk, with no test substance applied. The test substances were: (1) 20% glycerol in water; (2) a composition comprising aldehyde-derivatised dextran polymer cross linked with N-succinyl chitosan polymer, an aqueous phosphate buffer and approximately 20% v/v glycerol, prepared according to the description above in Example 2 (herein referred to as CS-DA-GLY); and (3) a composition comprising aldehyde-derivatised dextran polymer cross linked with N-succinyl chitosan polymer, and an aqueous phosphate buffer (herein referred to as CS-DA). That is, the composition of test substances (2) and (3) differ only in the presence and absence of glycerol. […] Following incubation for 112 hours 5 minutes at conditions appropriate for the microorganism, the surviving test microorganisms were recorded for each test and control plate.

P. aeruginosa [5] = assay: Cellulose disk on nutrient agar survival test (Example 6); type: cell-based; conditions: 48 h aerobic
From the text: as §1, with “Following incubation, the cellulose disks were each aseptically removed from the agar surface and the microorganism contents of the cellulose disks were individually extracted using sterile phosphate-buffered saline solution. Each of the resulting microorganism suspensions were serially diluted 1:10 in sterile phosphate-buffered saline solution and 1.000 mL of the appropriate dilutions were plated in singlet to sterile growth media appropriate for the target test microorganism.” left out

[6] = test set A, no C. acnes supernatant, glycerol as 20% v/v in water
[7] = 20% v/v glycerol, media (NB and BHI)
[8] = 20% glycerol, Nutrient Broth, 24 hours

OCC(O)CO [glycerol]
growth of S. aureus compared to control (S. aureus [1]; [6]): decrease | growth of S. aureus compared to control (S. aureus [1]; test set B, comprising C. acnes supernatant (method b251: culture grown on 20% glycerol substrate)): decrease | growth of S. aureus compared to control (S. aureus [1]; test set C, comprising C. acnes supernatant (method b251: glycerol-free substrate; b254: grown in the presence of glycerol)): decrease | growth of C. propinquum compared to control (C. propinquum; [7]): inhibited | growth of C. propinquum (C. propinquum; 40% v/v glycerol, NB and BHI): significant inhibitory effect | growth of C. accolens compared to control (C. accolens; 20% v/v glycerol): either unaffected or promoted | growth of C. accolens (C. accolens; 40% v/v glycerol): significant inhibitory effect | planktonic growth of P. aeruginosa vs untreated growth control (P. aeruginosa [2]; [8]): significantly inhibit; also recorded: significantly reduced | growth of P. aeruginosa compared to control (P. aeruginosa [2]; [7]): inhibited | growth of P. aeruginosa (P. aeruginosa [2]; 40% v/v glycerol, NB and BHI): significant inhibitory effect | planktonic growth of S. aureus vs untreated growth control (S. aureus [3]; [8]): significantly reduced; also recorded: significantly inhibit | growth of S. aureus compared to control (S. aureus [3]; [7]): inhibited | growth of S. aureus (S. aureus [3]; 40% v/v glycerol, NB and BHI): significant inhibitory effect | planktonic growth of S. epidermidis vs untreated growth control (S. epidermidis; [8]): significantly inhibit; also recorded: significantly reduced | growth of S. epidermidis compared to control (S. epidermidis; [7]): inhibited | growth of S. epidermidis (S. epidermidis; 40% v/v glycerol, NB and BHI): significant inhibitory effect | growth of commensal and pathogenic bacterial isolates ([4]; 20% glycerol, BHI broth): significantly inhibit | growth of commensal and pathogenic bacterial isolates ([4]; 40% glycerol, BHI broth): significantly inhibit | growth of commensal and pathogenic bacterial isolates ([4]; 40% glycerol, NB): significantly inhibit | planktonic growth of C. pseudodiphtheriticum vs untreated growth control (C. pseudodiphtheriticum; [8]): significantly inhibit; also recorded: significantly reduced | growth of C. pseudodiphtheriticum compared to control (C. pseudodiphtheriticum; [7]): inhibited | growth of C. pseudodiphtheriticum (C. pseudodiphtheriticum; 40% v/v glycerol, NB and BHI): significant inhibitory effect | growth (percent survival) of C. acnes compared to untreated control (C. acnes): supported | growth of P. aeruginosa compared to control (P. aeruginosa [5]; [6]): decrease | growth of P. aeruginosa compared to control (P. aeruginosa [5]; test set C, with C. acnes supernatant (grown in the presence of glycerol)): much more substantial decrease; also recorded: reduction
